Values of other authors as cited in US12137716B2, “Methods of liver disease treatment” (priority 2015, dated 2024).
Entries after “also recorded” stand apart in the source; their conditions may differ.

Experiments:
[1] = test system: mice fed either a MCD or MD diet
NASH model mice = details: NASH mouse model
patients with severe ALD = details: added to corticosteroids
[2] = test system: patients with both alcoholic and non-alcoholic liver diseases; details: patients with liver disease
[3] = test system: ethanol-induced fibrotic mouse model
[4] = test system: rats and baboons fed ethanol
[5] = oral administration
[6] = test system: CCl (4) induced cirrhosis; details: CCl4 induced

For `N=C(N)NCCC[C@H](N)C(=O)O` [Arginine], the “hepatic microcirculation and tissue oxygenation” value (patients with cirrhosis) is listed as “improves hepatic microcirculation and tissue oxygenation”.
For `N[C@@H](CCC(=O)N[C@@H](CS)C(=O)NCC(=O)O)C(=O)O` [GSH, Glutathione], the “GSH in the mitochondria” value [1] is listed as “restored GSH in the mitochondria” and the hepatocellular injury [1] is listed as “ameliorated hepatocellular injury”.
In the case of `C[N+](C)(C)C[C@H](O)CC(=O)[O-]` [L-Carnitine], the “progression of NASH” value (NASH model mice) is listed as “prevents progression of NASH”.
For `CC(=O)N[C@@H](CS)C(=O)O` [NAC, N-acetylcysteine], the “hepatorenal syndrome, infection, short-term mortality” value (patients with severe ALD) is given as “decrease hepatorenal syndrome, infection, and short-term mortality”, the “hepatic fatty acid accumulation” value (ethanol-fed rats) is given as “decrease hepatic fatty acid accumulation” and the inflammatory markers (ethanol-fed rats) is given as “decrease inflammatory markers”.
In the case of `C[S+](CC[C@H](N)C(=O)O)C[C@H]1O[C@@H](n2cnc3c(N)ncnc32)[C@H](O)[C@@H]1O` (stereo partly drawn) [SAMe, S-adenosylmethionine], the “GSH in the mitochondria” value [1] is listed as “restored GSH in the mitochondria”, the hepatocellular injury [1] is listed as “ameliorated hepatocellular injury” and the hepatic glutathione levels [2] is listed as “significant increase; also recorded: increases hepatic GSH”. For the same compound, the “oxidative stress and hepatic stellate cell activation” value [3] was “attenuate oxidative stress and hepatic stellate cell activation”, the “hepatic GSH levels” value ([4]; ethanol-fed) was “restored hepatic GSH levels” and the “mitochondrial lesions and leakage” value ([4]; ethanol-fed) was “positive effect on mitochondrial lesions and leakage”. The oral bioavailability [5] was “low bioavailability”.
For `COc1cc(/C=C/C(=O)CC(=O)/C=C/c2ccc(O)c(OC)c2)ccc1O` [curcumin, Curcumin], the cirrhosis [6] is given as “reverses”.
In the case of Phosphatidylcholine [PC], the albumin-bound hydroxyproline levels (HCV patients) is given as “decreased levels”, the procollagen-III-peptide levels (HBV patients) is given as “reduced levels” and the liver injury ([4]; CCl4 and ethanol-induced) is given as “attenuated CCI4 and ethanol-induced liver injury”.
